Results: patent US5369095A, “Compositions and method comprising substituted glycosides as mucus membrane permeation enhancers” (priority 1993, dated 1994)

Experiments:
[1] = Penetration of para-aminoclonidine through the cornea: amount in aqueous humor after topical dosing, liquid scintillation counting; type: in vivo, New Zealand albino rabbits; conditions: 60 minutes; 0.125% para-amino-clonidine with 0.05% dodecyl maltoside versus drug without dodecyl maltoside; 30 ul topical
Procedure: Nine New Zealand albino rabbits were selected for evaluation of the penetration through the cornea of the para-amino-clonidine formulation set forth above. All rabbits received 30 ul of the 0.125% para-amino-clonidinetopically in both eyes. Three rabbits were sacrificed at 20 minutes from dosing and aqueous humor was withdrawn from their eyes. The aqueous humor as assayed by liquid scintillation counting to determine the amount of para-amino-clonidine in the aqueous humor. The same procedure was done on 3 different rabbits at 60 minutes from dosing and on another 3 rabbits, 120 minutes from dosing. […] Aqueous humor was withdrawn and assayed as explained above.
Nine New Zealand albino rabbits were selected for evaluation of the penetration through the cornea of the para-amino-clonidine formulation set forth above. All rabbits received 30 ul of the 0.125% para-amino-clonidinetopically in both eyes. Three rabbits were sacrificed at 20 minutes from dosing and their aqueous humor was withdrawn from their eyes. The aqueous humor was assayed by liquid scintillation counting to determine the amount of para-amino-clonidine in the aqueous humor. The same procedure was done on three different rabbits at 60 minutes from dosing and on another three rabbits, 120 minutes from dosing. […] Aqueous humor was withdrawn and assayed as explained above.

[2] = Apparent permeability coefficient through excised cornea mounted between diffusion cells; type: in vitro ADME, Albino rabbits
Procedure: Albino rabbits were sacrificed, and within 15 minutes, the corneas were mounted and clamped between diffusion cells according to the published procedure by Schoenwald et al. (J. Pharm. Sci. 72, 1266, 1983). 7 ml of bicarbonated Ringer's solution containing reduced glutathione was added to the endothelial side to serve as the receiver solution. An equal volume of the same solution containing Atenolol, a β-blocker, with or without dodecyl maltoside (DDM) was added to the epithelial side to serve as the donor solution. The apparent permeability coefficient was calculated from the average cumulative amount of drug penetrating through the cornea over time according to Schoenwald.
The procedure in Example 8 was repeated with the following para-amino clonidine formulations.
The procedure of Example 8 was repeated with Atenolol except dodecyl maltoside was substituted with 0.1% amount by weight of each of the following substituted glycosides of this invention and the following results were obtained.

CCCCCCCCCCCCO[C@@H]1O[C@H](CO)[C@@H](O[C@H]2O[C@H](CO)[C@@H](O)[C@H](O)[C@H]2O)[C@H](O)[C@H]1O [dodecyl maltoside, Dodecyl maltoside]
increase in the amount of para-aminoclonidine found in the aqueous humor [1]: four
permeation for para-amino clonidine as compared to control [2]: superior permeation

Lysophosphatidyl Inositol
Permeability Coefficient ([2]; rabbit): 14.0 cm/sec × 10^-6
